Tests used:
[1] = test system: MURF-1 mRNA; test: MuRF-1 mRNA level by real time PCR in C2C12 cells (FIG. 5A); format: cell-based, mouse; conditions: C2C12, 20 μM dapsone and 1 μM dexamethasone, 24 hours; normalized to GAPDH mRNA
Description: (§1) Here, 1 μM of dexamethasone was added thereto and incubated for 24 hours. Then, the amounts of the expressed mRNA of the Atrogin-1 and MuRF-1 among the C2C12 cells were confirmed. Here, the complete RNA was separated by using a Trizol reagent (Invitrogen). The analysis of the mRNAs of Atrogin-1 and MuRF-1 was performed by using a real time […] instrument, BioRad), which is a device for measuring reverse transcription and SYBR Green. The resulting amounts then normalize to the amount of GAPDH mRNA. The amplification of Atrogin-1, MuRF-1, and GAPDH mRNAs was performed by using an oligonucleotide primer set of SEQ ID NOS: 1 and 2, an oligonucleotide primer set of SEQ ID NOS: 3 and 4, and an oligonucleotide primer set of SEQ ID NOS: 5 and 6.

[2] = test system: phosphorylated FOXO1-p (Ser256); test: Factors of atrophy: western blot of FOXO1-p in C2C12 cells (FIG. 4); format: cell-based, mouse; conditions: C2C12, 0.1, 1, 20 μM dapsone 12 hours, then 1 μM dexamethasone 2 hours
Description: (§2) A C2C12 cell line (mouse gastrocnemius muscle, ATCC®CRL-1772™) was inoculated in a 10% FBS/DMEM culture medium in a 60 mm culture dish. When the cells were grown to about 70% confluency in a 5% CO2 incubator at a temperature of 37° C., the culture medium was changed to a 2% FBS/DMEM culture medium to allow complete differentiation after incubation for 4 days. The C2C12 cell line is a mouse myoblast cell line obtained through continuous culture of myoblasts that are cultured from the gastrocnemius muscle of C3H mice. […] Here, 1 μM of dexamethasone was added thereto and cultured together for 2 hours as described above.
(§3) After the medium was removed from the culture and the cells were collected therefrom, 500 μl of an RIPA lysis buffer (including 20 mM Tris-HCl (pH 7.5), 150 mM NaCl, 1 mM Na2EDTA, 1 mM EGTA, 1% NP-40, 1% sodium deoxycholate, 2.5 mM sodium pyrophosphate, 1 mM beta-glycerophosphate, 1 mM Na3VO4, and 1 μg/ml leupeptin) was added for lysing the cells. […]

[3] = test system: Atrogin-1 mRNA; test: Atrogin-1 mRNA level by real time PCR in C2C12 cells (FIG. 5A); format: cell-based, mouse; conditions: C2C12, 20 μM dapsone and 1 μM dexamethasone, 24 hours; normalized to GAPDH mRNA
Description: as §1

[4] = test system: MURF-1; test: MuRF-1 protein level by western blot in C2C12 cells (FIG. 5B); format: cell-based, mouse; conditions: C2C12, 0.1, 1 or 20 μM dapsone and 1 μM dexamethasone; concentration-dependent
Description: as §2, with “for 24” for “for 2”
(§4) After the medium was removed from the culture and the cells were collected therefrom, 500 μl of an RIPA lysis buffer was added for lysing the cells. Then, the resulting lysates were subjected to electrophoresis and western blot analysis with respect to Atrogin-1, MuRF-1, and α-tubulin. A primary antibody used in the western blot analysis was a rabbit anti-Atrogin-1 antibody (ECM Bioscience), a MuRF-1 antibody (GeneTax), and α-tubulin (Cell Signaling Technology, USA) antibody, and a secondary antibody used in the western blot analysis was an HRP-conjugated anti-rabbit antibody (Jackson ImmunoResearch).

[5] = test system: SOL muscle of the hind-limb of a mouse; conditions: mouse fed 4 mg/kg dexamethasone and 2 mg/kg dapsone for 3 weeks, 0.2 Hz (100 V)
Description: (§5) The SOL muscle was separated from a female mouse (which weighs about 20 g) aged about 3 months. The mouse was anesthetized by sodium pentobarbital injection (100 mg/kg body weight). The SOL muscle, which is a type I muscle, was separated by paying attention to each hind-limb of the mouse while maintaining ligaments from both hind-limbs without damaging the SOL muscle. Then, the separated SOL muscle was put in an oxygen-treated Ringer's solution (118 mM NaCl, 4.75 mM KCl, 2.5 mM CaCl2, 1.18 mM MgSO4, 1.18 mM NaH2PO4, 24.8 mM NaHCO3, 10 mM glucose, and 0.02 g/l tubocurarine chloride, 25° C., pH 7.4) (Sigma Aldrich), set, and stabilized. One side of the separated SOL muscle was filled with the Ringer's solution to fix the separated SOL muscle on a tissue bath with smooth oxygen supply while the other side of the separated SOL muscle was fixed on a FT03 isometric force transducer (Grass Instruments, West Warwick, USA). Here, the muscle twitching was adjusted according to the intensity of the electric field stimulation. […] Here, the muscle contractility value (mN) represents the muscle twitch contraction.

[6] = test system: Atrogin-1; test: Atrogin-1 protein level by western blot in C2C12 cells (FIG. 5B); format: cell-based, mouse; conditions: C2C12, 0.1, 1 or 20 μM dapsone and 1 μM dexamethasone; concentration-dependent
Description: as §2, with “for 24” for “for 2”
as §4

[7] = test system: phosphorylated Akt-p (Ser473); test: Factors of atrophy: western blot of Akt-p in C2C12 cells (FIG. 4); format: cell-based, mouse; conditions: C2C12, 0.1, 1, 20 μM dapsone 12 hours, then 1 μM dexamethasone 2 hours; concentration-dependent
Description: as §2, §3

[8] = test system: SOL muscle of the hind-limb of a mouse; test: Muscle fatigability of SOL muscle separated from fed mice (FIG. 7); format: in vivo; conditions: 150 Hz, 100 V, stimulation every 2 seconds for 30 seconds
Description: as §5

Compound | mRNA level of MURF-1 [1] | amount of the FOXO1-p protein [2] | mRNA level of Atrogin-1 [3] | protein level of MURF-1 [4] | increase of twitch contractility compared with mouse fed on dexamethasone [5] | protein level of Atrogin-1 [6] | amount of the Akt-p [7] | decrease of muscle fatigability compared with intake of only dexamethasone ([8]; intake of both dexamethasone and dapsone) | degree of the muscle fatigability ([8]; upon intake of dexamethasone)
Nc1ccc(S(=O)(=O)c2ccc(N)cc2)cc1 [dapsone, 4-[(4-aminobenzene)sulfonyl]aniline] | significantly decreased | decreased | significantly decreased | significantly decreased | 43.7% | significantly decreased | increased | 20.3% | 
C[C@@H]1C[C@H]2[C@@H]3CCC4=CC(=O)C=C[C@]4(C)[C@@]3(F)[C@@H](O)C[C@]2(C)[C@@]1(O)C(=O)CO [dexamethasone] |  |  |  |  |  |  |  |  | increased
